Assay results as given in patent publication US20110104144A1, “METHODS FOR TREATING CUTANEOUS LUPUS USING AMINOISOINDOLINE COMPOUNDS” (CELGENE CORPORATION, priority 2005, published 2011).

What was measured:
CD44 = assay: HUVEC cell surface expression of CD44 by flow cytometry; type: cell-based, Human; settings: 10 μM, FIG. 4
Procedure: (§1) A) Materials. Human Umbilical Vein Endothelial Cells (HUVEC) sent from LifeBank, were tested in Experiments A-K with several adhesion molecules. The adhesion molecules tested were CD51/CD61FITC (obtained from BD PharMingen, San Diego, Calif.; Catalog No. 555505), ICAM-1 PE also known as CD54 (obtained from BD PharMingen, San Diego, Calif.; Catalog No. 555511), ICAM-2 also known as CD102 (obtained from Research Diagnostics Inc., Concord, Mass.; Catalog No. RDI-CBL539FT), VCAM-1 (obtained from BD PharMingen, San Diego, Calif.; Catalog No. 555647), P-Selectin FITC (obtained from R&D Systems, Inc., Minneapolis, Minn.; Catalog No. BBA34), E-Selectin FITC (obtained from R&D Systems, Inc., Minneapolis, Minn.; Catalog No. BBA21), HLA Class I FITC (obtained from BD PharMingen, San Diego, Calif.; Catalog No. 555553), HLA Class II PE (obtained from BD PharMingen, San Diego, Calif.; Catalog No. 555558), CD44 FITC (obtained from BD PharMingen, San Diego, Calif.; Catalog No. 347943), CD144 (Cadherin VE) (obtained from CHEMICON International, Inc., Temecula, Calif.; Catalog No. MAB1989), IgG2a FITC (obtained from BD PharMingen, San Diego, Calif.; Cat #556652), Ms IgG2a (obtained from CHEMICON International, Inc., Temecula, Calif.; Cat. No. PP102), IgG1 FITC (obtained from BD PharMingen, San Diego, Calif.; Cat. No. 349041) and IgG1 PE (obtained from BD PharMingen, San Diego, Calif.; Cat. No. 349043).
(§2) Compound (1) ((+)-2-[1-(3-ethoxy-4-methoxyphenyl)-2-methylsulfonylethyl]-4-acetylaminoisoindoline-1,3-dione) and Compound (2) (4-(amino)-2-(2,6-dioxo(3-piperidyl))-isoindoline-1,3-dione) were obtained according to the preparation procedures disclosed herein. 16,16-Dimethyl-PGE2 (hereinafter PGE2) was obtained from BIOMOL International, L.P. (Plymouth Meeting, Pa.; Catalog No. PG-021). TNF-αwas obtained from Pierce Biotechnology (Rockford, Ill.; Catalog No. RTNFA 10).
(§3) B) Methods. […]

ICAM-1 = assay: HUVEC cell surface expression of ICAM-1 by flow cytometry; type: cell-based, Human; settings: TNF-α stimulated, 10 μM, FIG. 5
Procedure: (§4) A) Materials. Human Umbilical Vein Endothelial Cells (HUVEC) sent from LifeBank, were tested in Experiments A-K with several adhesion molecules. […]

CD51/61 = assay: HUVEC cell surface expression of CD51/61 by flow cytometry; type: cell-based, Human; settings: unstimulated, 10 μM, FIG. 1
Procedure: as §1, §2, §3

TNF-α = assay: Ultraviolet B-induced TNF-alpha production by human keratinocytes (HEKn cells), TNF-α ELISA; type: cell-based
Procedure: Cutaneous lupus patients often experience disease exacerbation when exposed to ultraviolet (UV) light. This is thought to be due to UVB-induced TNF-α production by keratinocytes. […] In vitro study for cutaneous lupus was performed to investigate how the compounds of the invention affect TNF-α production in keratinocytes.
Human neonatal foreskin epidermal keratinocytes (HEKn cells) were obtained from Cascade Biologics and were grown in serum-free medium supplemented with growth factors. When cells reached 80% confluency, they were trypsinized and plated at 1×10^5 cells/well in 6 well dishes. Plates were incubated for 24 hours to allow cell adhesion. To optimize conditions for the release of TNF-α, cells were treated with various degrees of exposure to UVB radiation (1, 4 and 24 hours). Supernatants were then collected and tested in the TNF-α ELISA.
Supernatants were collected and tested in the TNF-α ELISA at 1 Hour (bars with no pattern), 4 Hours (lined bars), or 24 Hours (checkered bars) after exposure. Results are the average of two experiments. The results shown in FIG. 7 indicate that supernatants collected 24 hours after HEKn cells were exposed to UVB had the highest levels of TNF-α. After exposure to 10, 50, or 100 mJ/cm^2, cells remained attached to the wells and no cell damage was observed. The 300 mJ/cm^2 UVB exposure was too high for the HEKn cells and many cells were damaged and detached from the bottom of the wells.
Cells were treated for 4 hours with (+)-2-[1-(3-ethoxy-4-methoxyphenyl)-2-methylsulfonylethyl]-4-acetylaminoisoindoline-1,3-dione (compound named 10004), or cyclopropyl {2-[(1S)-1-(3-ethoxy-4-methoxyphenyl)-2-(methylsulfonyl)ethyl]-3-oxoisoindolin-4-yl}carboxamide (compound named 11050) at 0.1 μM, 1 μM, or 10 μM. Medium was aspirated the cells washed and then exposed to 50 mJ/cm^2 UVB radiation. Fresh medium was added and the cells were incubated for 24 hours. Supernatents were removed and tested in the TNF-α ELISA kit from Pierce Biotechnology. […] (FIG. 8). […] (FIG. 8).
In other experiments, cells were treated for 4 hours with 3-(4-amino-1-oxo-1,3-dihydro-isoindol-2-yl)-piperidine-2,6-dione (compound named 5013), (+)-2-[1-(3-ethoxy-4-methoxyphenyl)-2-methylsulfonylethyl]-4-acetylaminoisoindoline-1,3-dione (compound named 10004) or compound named 16057, at 0.1 μM or 1 μM. […] (FIG. 9). […] (FIG. 9).

P-Selectin = assay: HUVEC cell surface expression of P-Selectin by flow cytometry; type: cell-based, Human; settings: 10 μM; for increase of TNF-α-induced cell expression of P-Selectin above baseline: TNF-α (1 ng/ml) stimulated, FIG. 3; for inhibition of P-Selectin expression: unstimulated, FIG. 2
Procedure: as §1, §2
(§5) B) Methods. HUVEC's were plated on 6-well plates at a concentration of 1×10^5 cells/well in 3 ml EBM® endothelial basal media (obtained from Cambrex Corporation, East Rutherford, N.J.; Catalog No. CC-3121) and singlequots (obtained from Cambrex Corporation, East Rutherford, N.J.; Catalog No. CC-4133). The cells were incubated overnight in a 37° C. and 5% CO2 humidified incubator to allow cells to attach. The old media was removed in next day and replaced with 3 ml fresh EBM® endothelial basal media. Then, samples of 3 μl of 10 mM of Compound (1), Compound (2), PGE2 and a mixture of Compound (1) and PGE2 were added separately to each well of the plates in duplicate to give a final concentration of 10 μM. An unstimulated DMSO control and a TNF-α-stimulated control were also added in duplicate. The plates were incubated in a 37° C. and 5% CO2 humidified incubator for 1 hr. […] The plates were incubated overnight in a 37° C. and 5% CO2 humidified incubator. The cells were also tested without TNF-α. The media was removed in the next day and each well was washed with 3 ml of phosphate buffered saline (PBS). Then, 3 ml of PBS containing 1 mM of EDTA (ethylenediaminetetraacetate) was added to each well to allow the cells to detach. Once the cells detached, they were gently scraped and placed in 4.5 ml Falcon tubes. The tubes were then centrifuged at 1200 RPM for 8 minutes at 4° C. The supernatant was carefully removed. Next, 50 μl of PBS-FACS buffer (5% fetal bovine serum (FBS), 0.02% sodium azide in PBS) and 20 μl of antibodies were added to all tubes as follows:
(§6) After the antibodies were added, the tubes were incubated on ice for 30 minutes and covered with foil. Then, the tubes were centrifuged at 1200 RPM for 8 minutes at 4° C. The supernatant was carefully removed. The cells were re-suspended in 2 ml of PBS-FACS buffer and centrifuged again as above. The supernatant was carefully removed again and the cells were re-suspended in 500 μl of PBS-FACS buffer. The tubes were then analyzed using a flow cytometer. […]

VCAM = assay: HUVEC cell surface expression of VCAM by flow cytometry; type: cell-based, Human; settings: TNF-α stimulated, 10 μM, FIG. 5
Procedure: as §4

E-Selectin [1] = assay: HUVEC cell surface expression of E-Selectin by flow cytometry; type: cell-based, Human; settings: 10 μM; for E-Selectin cell surface expression: unstimulated, FIG. 2
Procedure: as §1, §2, §5, §6

VE-Cadherin = assay: HUVEC cell surface expression of VE-Cadherin (CD144) by flow cytometry; type: cell-based, Human; settings: 10 μM, FIG. 4
Procedure: as §1, §2, §3

E-Selectin [2] = assay: E-Selectin cell surface expression in HUVEC detected by ELISA; type: cell-based, Human; settings: HUVEC, 0.25, 0.5 and 1 ng/ml of TNF-α, 10 μM, FIG. 6
Description: In this assay, the mixture of Compound (1) and PGE2 appeared to work synergistically.

[3] = HEKn cells treated 4 hours at 0.1 μM, 1 μM, or 10 μM, 50 mJ/cm^2 UVB, 24 hours, FIG. 8
[4] = TNF-α (1 ng/ml) stimulated, FIG. 3

SMILES | inhibition of TNF-α-stimulated cell surface expression of CD44 (CD44) | CD51/61 cell surface expression compared to untreated conditions (CD51/61) | levels of TNF-α released after UVB exposure (TNF-α; [3]) | increase of TNF-α-induced cell expression of P-Selectin above baseline (P-Selectin) | inhibition of P-Selectin expression (P-Selectin) | E-Selectin cell surface expression (E-Selectin [1]) | TNF-α-stimulated cell surface expression of VE-Cadherin (VE-Cadherin) | inhibition of TNF-α-induced E-Selectin expression (E-Selectin [1]; [4]) | further results
CCOc1cc(C(CS(C)(=O)=O)N2C(=O)c3cccc(NC(C)=O)c3C2=O)ccc1OC (single isomer, unassigned; (+)) [Compound (1), (+)-2-[1-(3-ethoxy-4-methoxyphenyl)-2-methylsulfonylethyl]-4-acetylaminoisoindoline-1,3-dione] | approximately 30% | unaffected | dose dependent decrease | 40% | approximately 55% | inhibited | unaffected |  | increase of ICAM-1 cell surface expression (ICAM-1): approximately 35%; levels of TNF-α released after UVB exposure (TNF-α; HEKn cells treated 4 hours at 0.1 μM or 1 μM, UVB, FIG. 9): dose dependent decrease; TNF-α levels after UVB exposure with the 10 μM treatment (TNF-α; HEKn cells treated 4 hours at 10 μM, 50 mJ/cm^2 UVB, 24 hours, FIG. 8): TNF-α levels similar to cells not treated with radiation; increase of P-Selectin cell surface expression (P-Selectin; TNF-α stimulated, FIG. 5): approximately 35%; decrease of VCAM expression (VCAM): 30%; TNF-α-stimulated cell surface expression of E-Selectin (E-Selectin [1]; [4]): unaffected
Nc1cccc2c1CN(C1CCC(=O)NC1=O)C2=O (stereo not drawn) [Compound 5013, 3-(4-amino-1-oxo-1,3-dihydro-isoindol-2-yl)-piperidine-2,6-dione] |  |  |  |  |  |  |  |  | TNF-α levels after UVB exposure with the 0.1 μM treatment (TNF-α; HEKn cells treated 4 hours at 0.1 μM, UVB, FIG. 9): TNF-α levels lower than cells not treated with radiation
CCOc1cc([C@@H](CS(C)(=O)=O)N2Cc3cccc(NC(=O)C4CC4)c3C2=O)ccc1OC [Compound 11050, cyclopropyl {2-[(1S)-1-(3-ethoxy-4-methoxyphenyl)-2-(methylsulfonyl)ethyl]-3-oxoisoindolin-4-yl}carboxamide] |  |  | dose dependent decrease |  |  |  |  |  | 
Nc1cccc2c1C(=O)N(C1CCC(=O)NC1=O)C2=O (stereo not drawn) [Compound (2), 4-(amino)-2-(2,6-dioxo(3-piperidyl))-isoindoline-1,3-dione] | approximately 30% | unaffected |  | > 2 fold | ~35% | inhibited | unaffected | approximately 20% | TNF-α-stimulated E-Selectin cell surface expression (ELISA) (E-Selectin [2]): inhibitory effect; increase of P-Selectin expression (P-Selectin; TNF-α stimulated, FIG. 5): ~2 fold
CCCCC(C)(C)[C@H](O)/C=C/[C@H]1[C@H](O)CC(=O)[C@@H]1C/C=C\CCCC(=O)O [PGE2, 16,16-Dimethyl-PGE2, reference compound] |  |  |  |  |  |  | unaffected | 50% | TNF-α-stimulated cell surface expression of CD44 (CD44): no detectable effects; reduction in the CD51/61 cell surface expression (CD51/61): 20%; cell surface expression of VCAM (VCAM): significantly decreased; cell surface expression of E-Selectin (E-Selectin [1]; TNF-α stimulated, FIG. 5): significantly decreased
